The record followed here is patent US20050148495A1, “Methods and materials including for treating acne” (priority 2003, published 2005).

In brackets after ≈: the same amount, converted by molar mass. Where two headings read alike, the source gives them in different places. Non-standard residues stand in square brackets, D forms with d. Residues, ends and D or L forms follow the SMILES beside them. d1Nal = N[C@H](Cc1cccc2ccccc12)C(=O)O

The test system of data set [1] is CD [Crl:CD (SD)IGS BR] rats. As to the kind of experiment: Rat subchronic toxicity test, subcutaneous, 30 days. Type of data set: in vivo. The procedure:
XMP.629 was evaluated for potential subchronic dose toxicity after at least 30 consecutive days of administration to CD®[CrI: CD® (SD)IGS BR] rats. This study consisted of four main study groups, each containing ten rats/sex/group, and four toxicokinetic (TK) groups each containing six rats/sex/group. Three of the four main study and TK groups received XMP.629 by bolus subcutaneous injection at dose levels of 0.3, 1.0, and 3.0 mg/kg/day and at a dose volume of 3.0 mL/kg. One main study and TK group each served as control groups and received a vehicle (saline/sodium acetate buffer, pH 6.0) at the same dose volume. The TK groups were used for the assessment of plasma XMP.629 concentrations and to evaluate potential effects from repeat-dose administration of XMP.629 on antibody formation in a standardized assay. Blood was collected for plasma analysis on Days 1 and 28. […]
All rats were observed twice daily for morbidity, mortality, injury, and availability of food and water. Body weights were measured pretest and weekly for all rats and observations for clinical signs and measurements for food consumption were conducted weekly during the course of the study on main study rats. […] At the end of the treatment period for the main study rats, various hematology, clinical chemistry, and urinalysis parameters were evaluated. […]

Data set [2] in a line: in vivo. The settings on record: both, rat, plasma, po, 10 mg/kg, mean; for bioavailability: % F (bioavailability); for AUC: AUCall.
For data set [3], the system named is P. aeruginosa. Type of data set: cell-based, Pseudomonas aeruginosa.
In data set [4] the test system is albino hairless guinea pigs Crl:IAF(HA)-hrBR (Outbred). Nature of the data set: Photosafety study: primary irritancy, phototoxicity, contact hypersensitivity, photoallergy. Type of data set: in vivo, guinea pig. The conditions noted are these: XMP.629 up to 10 mg/mL (1.0%). The procedure: XMP.629 was evaluated for photoallergic potential administered topically to hairless guinea pigs. Primary irritancy, phototoxicity (photoirritancy) and contact hypersensitivity were also evaluated in these studies.
Male CrI:IaF(HA)-hrBR (Outbred) albino hairless guinea pigs were assigned to 7 groups, five guinea pigs per group as outlined below.
XMP.629 was formulated as a gel. The phototoxicity comparator article was 8-methoxypsoralen (8-MOP) in methanol at concentrations of 0.1, 0.3 and 1.0 mg/mL. The contact hypersensitivity and photoallergy comparator article was 3,3′,4′,5′-tetrachlorosalicy/anilide (TCSA) in acetone:corn oil (4:1, v/v) at challenge concentrations of 0 (Vehicle), 10, and 30 mg/mL. The reagent and reagent vehicle were Freund's complete adjuvant (FCA) and sterile water for injection, USP, respectively.
The formulation administration and ultraviolet radiation (UVR) exposure regimens for each group in the study were as follows.
For all phases of the study, test articles, test article vehicles, comparator articles and comparator article vehicles were administered (0.3 ml) using a Hilltop chamber affixed to the guinea pig with dental dam overlaid with a Velcro® wrap for approximately 2.0 hours per administration.
Primary irritancy potential of the test articles and test article vehicles was evaluated in Group 1 guinea pigs. Three chambers (one per formulation dosage) were attached to the dorsal skin along the midline. After the administration period the chamber patches were removed and the application sites were gently wiped.
Cutaneous phototoxicity potential of the test articles and test article vehicles was evaluated in Group 2 guinea pigs. Group 3 guinea pigs were used as a comparator group with elicitation of phototoxicity with 8-MOP. Three chambers (one per formulation dosage) were attached to the dorsal skin along the midline and occluded. After the administration period the chamber patches were removed and the application sites were gently wiped. After wiping, Group 2 and 3 guinea pigs were exposed to solar-simulated UVR for approximately 2.25 hours.
For induction of contact hypersensitivity and photoallergy, a nuchal area of skin approximately 2.5 cm^2 was defined by intradermal injections with a formulation of sterile water and FCA in guinea pigs in Groups 4 through 7 under isoflurane/oxygen anesthesia. This skin area was then tape stripped five times. Formulations were topically administered via chambers as described in the study design table using one chamber attached to the nuchal area. After removal of the chambers the application sites were gently wiped and the nuchal site of Group 6 and 7 guinea pigs was exposed to UVR as above. Appropriate procedures for guinea pigs (with the exception of injection with FCA) were repeated once daily on Days 3, 5, 8, 10 and 12 of the induction phase.
On Day 22 (contact hypersensitivity and photoallergy challenge), formulations were topically applied to appropriate sites on guinea pigs in Groups 4 through 7 as described above. Three chambers (one per formulation dosage) were attached to the dorsal skin along the midline and occluded. The chambers were then removed and the application sites were gently wiped. Guinea pigs in Groups 6 and 7 were then exposed to UVR as above.
Observations for general appearance and clinical signs were made weekly throughout the study. […] Body weights were recorded at initiation of dosing for each phase, weekly thereafter and at sacrifice. […]

Data set [5] relates to E. coli 07:K1. Nature of the data set: Acute peritonitis model (survival). The class given is in vivo, mice. The settings on record: 10 mg/kg intraperitoneally; 1.4×10^7 CFU E. coli 07:K1; seven days. The procedure: In additional studies in an acute peritonitis model, mice were challenged intraperitoneally with 1.4×10^7 CFU E. coli 07:K1 and treated intraperitoneally with XMP.629 at 1, 3, or 10 mg/kg or saline. Mice were observed twice daily and mortality was recorded for seven days. Statistical comparisons between the treatment groups and saline were performed using a Chi Square test. […] At 10 mg/kg, 87% protection was observed. In additional studies, XMP.629 was safely administered at a dose of 20 mg/kg intravenously.

Where [6] appears, read: 10 mg/kg XMP.629 acetate oral gavage in 5% glucose.
Setting [7] is: 10 mg/kg XMP.629 acetate oral gavage in distilled water.

Consider `CC(C)C[C@@H](NC(=O)[C@H](N)CCCCN)C(=O)N[C@H](Cc1ccccc1)C(=O)N[C@H](CCCNC(=N)N)C(=O)N[C@H](Cc1cccc2ccccc12)C(=O)N[C@H](CCC(N)=O)C(=O)N[C@H](C)C(=O)N[C@H](CCCCN)C(=O)N[C@H](Cc1cccc2ccccc12)C(N)=O` [XMP.629, NH2-lys-leu-phe-arg-(3-(1-naphthyl)-ala)-gln-ala-lys-(3-(1-naphthyl)-ala)-CONH2] (H-[dK][dL][dF][dR][d1Nal][dQ][dA][dK][d1Nal]-NH2), for which the main finding result in data set [1] (0.3, 1.0, and 3.0 mg/kg/day subcutaneous for 30 days) is recorded as “injection site lesions”. Besides, the “no-observed-effect level (NOEL) for systemic effects” value in data set [1] (subcutaneous, 30 days) is reported as “greater than 3.0 mg/kg/day”. In data set [2] (setting [6]), the bioavailability amounted to 0.0044%, the AUC came out at 1.67 ng·h/mL, the Cmax was found to be 4.6 ng/mL and the Tmax was determined as 11.4 min. Further, in data set [2] (setting [7]), the bioavailability turned out to be 0.0015%, the AUC worked out at 0.55 ng·h/mL, the Cmax worked out at 1.5 ng/mL and the Tmax came out at 8.4 min. Besides, in data set [3], the “MIC90, XMP.629 data reported as MBC values” came out at 32 µg/mL (≈ 24.9 µM). In data set [3] (in FB (formulation buffer)), the “MIC90, XMP.629 data reported as MBC values” was found to be 0.5 µg/mL (≈ 0.39 µM). Moreover, in data set [4], the contact hypersensitivity entry is reported as “did not cause skin changes” and the photoallergy result is “did not cause skin changes”. In addition, the phototoxicity entry in data set [4] (single topical administration and UVR) is “did not cause skin changes”. Also, in data set [4] (single topical administration, 0.3 mL/skin site), the primary irritation entry is listed as “did not cause skin changes”. Further, in data set [5], the “protection (survival)” value was found to be 87%.
